Experimental data from patent publication US20120107333A1, “VANGL1 PEPTIDES AND VACCINES INCLUDING THE SAME” (Oncotherapy Science, Inc., priority 2009, published 2012).
Non-standard residues stand in square brackets, D forms with d. No end group written: not given here.

Legend:
[1] = test system: peptide-pulsed A24LCL cells; test: IFN-gamma ELISPOT assay on CTLs induced with VANGL1 peptides; type: cell-based, human; settings: CTLs from HLA-A*2402 positive donor after 3rd peptide stimulation, day 21; compared to the control wells
Excerpt: (§1) Monocyte-derived dendritic cells (DCs) were used as antigen-presenting cells (APCs) to induce cytotoxic T lymphocyte (CTL) responses against peptides presented on human leukocyte antigen (HLA). DCs were generated in vitro as described elsewhere (Nakahara S et al., Cancer Res 2003 Jul. 15, 63(14): 4112-8). Specifically, peripheral blood mononuclear cells (PBMCs) isolated from a normal volunteer (HLA-A*2402 positive) by Ficoll-Plaque (Pharmacia) solution were separated by adherence to a plastic tissue culture dish (Becton Dickinson) so as to enrich them as the monocyte fraction. The monocyte-enriched population was cultured in the presence of 1,000 U/ml of granulocyte-macrophage colony-stimulating factor (GM-CSF) (R&D System) and 1,000 U/ml of interleukin (IL)-4 (R&D System) in AIM-V Medium (Invitrogen) containing 2% heat-inactivated autologous serum (AS). After 7 days of culture, the cytokine-induced DCs were pulsed with 20 micro-g/ml of each of the synthesized peptides in the presence of 3 micro-g/ml of beta 2-microglobulin for 3 hrs at 37 degrees C. in AIM-V Medium. The generated cells appeared to express DC-associated molecules, such as CD80, CD83, CD86 and HLA class II, on their cell surfaces (data not shown). These peptide-pulsed DCs were then inactivated by X-irradiation (20 Gy) and mixed at a 1:20 ratio with autologous CD8+ T cells, obtained by positive selection with CD8 Positive Isolation Kit (Dynal). These cultures were set up in 48-well plates (Corning); each well contained 1.5×10^4 peptide-pulsed DCs, 3×10^5 CD8+ T cells and 10 ng/ml of IL-7 (R&D System) in 0.5 ml of AIM-V/2% AS medium. Three days later, these cultures were supplemented with IL-2 (CHIRON) to a final concentration of 20 IU/ml. On days 7 and 14, the T cells were further stimulated with the autologous peptide-pulsed DCs. The DCs were prepared each time by the same way described above. CTL was tested against peptide-pulsed A24LCL cells after the 3rd round of peptide stimulation on day 21 (Tanaka H et al., Br J Cancer 2001 Jan. 5, 84(1): 94-9; Umano Y et al., Br J Cancer 2001 Apr. 20, 84(8): 1052-7; Uchida N et al., Clin Cancer Res 2004 Dec. 15, 10(24): 8577-86; Suda T et al., Cancer Sci 2006 May, 97(5): 411-9; Watanabe T et al., Cancer Sci 2005 August, 96(8): 498-506).
(§2) To examine specific CTL activity, interferon (IFN)-gamma enzyme-linked immunospot (ELISPOT) assay and IFN-gamma enzyme-linked immunosorbent assay (ELISA) were performed. Specifically, peptide-pulsed A24LCL (1×10^4/well) was prepared as stimulator cells. Cultured cells in 48 wells were used as responder cells. IFN-gamma ELISPOT assay and IFN-gamma ELISA assay were performed under manufacture procedure.

[2] = test system: peptide-pulsed A24LCL cells; test: IFN-gamma ELISA assay of established CTL lines; type: cell-based, human; settings: target cells pulsed with corresponding peptide vs target cells without peptide pulse
Excerpt: as §1
CTLs were expanded in culture using the method similar to the one described by Riddell et al. (Walter E A et al., N Engl J Med 1995 Oct. 19, 333(16): 1038-44; Riddell S R et al., Nat Med 1996 February, 2(2): 216-23). A total of 5×10^4 CTLs were suspended in 25 ml of AIM-V/5% AS medium with 2 kinds of human B-lymphoblastoid cell lines, inactivated by Mitomycin C, in the presence of 40 ng/ml of anti-CD3 monoclonal antibody (Pharmingen). One day after initiating the cultures, 120 IU/ml of IL-2 were added to the cultures. The cultures were fed with fresh AIM-V/5% AS medium containing 30 IU/ml of IL-2 on days 5, 8 and 11 (Tanaka H et al., Br J Cancer 2001 Jan. 5, 84(1): 94-9; Umano Y et al., Br J Cancer 2001 Apr. 20, 84(8): 1052-7; Uchida N et al., Clin Cancer Res 2004 Dec. 15, 10(24): 8577-86; Suda T et al., Cancer Sci 2006 May, 97(5): 411-9; Watanabe T et al., Cancer Sci 2005 August, 96(8): 498-506).
as §2

[3] = test system: target cells pulsed peptide; test: IFN-gamma ELISA assay of CTL clones established by limiting dilution; type: cell-based, human; settings: CTL clones against target cells pulsed peptide
Description: The dilutions were made to have 0.3, 1, and 3 CTLs/well in 96 round-bottomed micro titer plate (Nalge Nunc International). CTLs were cultured with 1×10^4 cells/well of 2 kinds of human B-lymphoblastoid cell lines, 30 ng/ml of anti-CD3 antibody, and 125 U/ml of IL-2 in a total of […] of AIM-V Medium containing 5% AS. 50 micro-Dwell of IL-2 were added to the medium 10 days later so to reach a final concentration of 125 U/ml IL-2. CTL activity was tested on the 14th day, and CTL clones were expanded using the same method as described above (Uchida N et al., Clin Cancer Res 2004 Dec. 15, 10(24): 8577-86; Suda T et al., Cancer Sci 2006 May, 97(5): 411-9; Watanabe T et al., Cancer Sci 2005 August, 96(8): 498-506).
as §2

[4] = test system: COS7 cells transfected with VANGL1 and HLA-A*2402; test: Specific CTL activity against target cells exogenously expressing VANGL1 and HLA-A*2402; type: cell-based, African green monkey
Excerpt: The cDNA encoding an open reading frame of target genes or HLA-A*2402 was amplified by PCR. The PCR-amplified product was cloned into pCAGGS vector. The plasmids were transfected into COS7, which is the target genes and HLA-A24-negative cell line, using lipofectamine 2000 (Invitrogen) according to the manufacturer's recommended procedures. After 2 days from transfection, the transfected cells were harvested with versene (Invitrogen) and used as the target cells (5×10^4 cells/well) for CTL activity assay.
The established CTL lines raised against these peptides were examined for their ability to recognize target cells that endogenously express VANGL1 and HLA-A*2402 molecule. Specific CTL activity against COS7 cells which transfected with both the full length of VANGL1 and HLA-A*2402 molecule gene (a specific model for the target cells that exogenously express VANGL1 and HLA-A*2402 gene) was tested using the CTL lines raised by corresponding peptide as the effecter cells. COS7 cells transfected with either full length of VANGL1 genes or HLA-A* 2402 were prepared as controls.

Substance	Peptide specific CTL activity: IFN-gamma production (ELISPOT) [1]	CTL activity of CTL lines: IFN-gamma production (ELISA) [2]	IFN-gamma production from CTL clones (ELISA) [3]	Specific CTL activity ([4]; COS7 cells expressing both VANGL1 and HLA-A*2402)	Specific CTL activity ([4]; controls: COS7 cells transfected with either full length VANGL1 or HLA-A*2402)
LFVVSYWLF [SEQ ID NO: 12]	potent IFN-gamma production	potent IFN-gamma production			
LFIHyLAIVL (LFIH[code y]LAIVL) [SEQ ID NO: 24]	potent IFN-gamma production	potent IFN-gamma production	Potent IFN-gamma productions		
VELTpIAFIL [SEQ ID NO: 22]	potent IFN-gamma production	potent IFN-gamma production	Potent IFN-gamma productions		
RYLSAGPTL [SEQ ID NO: 1]	potent IFN-gamma production	potent IFN-gamma production		potent CTL activity	no significant specific CTL activity
VFRALLLVL [SEQ ID NO: 9]	potent IFN-gamma production	potent IFN-gamma production			
VFVFRALLL [SEQ ID NO: 8]	potent IFN-gamma production	potent IFN-gamma production	Potent IFN-gamma productions		
LFISmAFKLL (LFIS[code m]AFKLL) [SEQ ID NO: 25]	potent IFN-gamma production	potent IFN-gamma production			
NYQGiVQYAV (NYQG[code i]VQYAV) [SEQ ID NO: 32]	potent IFN-gamma production	potent IFN-gamma production			
HYLAiVLLEL (HYLA[code i]VLLEL) [SEQ ID NO: 18]	potent IFN-gamma production	potent IFN-gamma production	Potent IFN-gamma productions		
RYLGLTVAS [SEQ ID NO: 11]	potent IFN-gamma production	potent IFN-gamma production			
DFTIyNPNLL (DFTI[code y]NPNLL) [SEQ ID NO: 26]	potent IFN-gamma production				
